Experimental data from patent US11582970B2, “2-aminoimidazole-phenyl derivatives useful for controlling microbial growth” (NORTH CAROLINA STATE UNIVERSITY, priority 2017, dated 2023).

Experiments:
Type in all cases: cell-based
A. baumannii (Ab) AR# 88 = assay: MIC of meropenem in combination with compound, CDC carbapenem resistant strain; settings: Acinetobacter baumannii, no compound (None), read-out: Minimum Inhibitory Concentration of Meropenem
Description: (§1) EXAMPLE 2: Six compounds were assessed for their activity in combination with meropenem against carbapenem resistant strains of A. baumannii (Ab), K. pneumoniae (Kp), and E. coli acquired from the Center for Disease Control (CDC). AR #—assigned AR-BANK number from the CDC.

[1] = tested on: K. pneumoniae (Kp) AR# 40; assay: as above; settings: Klebsiella pneumoniae, no compound (None), read-out: Minimum Inhibitory Concentration of Meropenem
Description: as §1

A. baumannii (Ab) AR# 36 = assay: as above; settings: Acinetobacter baumannii, no compound (None), read-out: Minimum Inhibitory Concentration of Meropenem
Description: as §1

E. coli AR# 55 = assay: as above; settings: Escherichia coli, no compound (None), read-out: Minimum Inhibitory Concentration of Meropenem
Description: as §1

A. baumannii (Ab) AR# 63 = assay: as above; settings: Acinetobacter baumannii, no compound (None), read-out: Minimum Inhibitory Concentration of Meropenem
Description: as §1

A. baumannii (Ab) AR# 52 = assay: as above; settings: Acinetobacter baumannii, no compound (None), read-out: Minimum Inhibitory Concentration of Meropenem
Description: as §1

E. coli AR# 48 = assay: as above; settings: Escherichia coli, no compound (None), read-out: Minimum Inhibitory Concentration of Meropenem
Description: as §1

A. baumannii (Ab) AR# 56 = assay: as above; settings: Acinetobacter baumannii, no compound (None), read-out: Minimum Inhibitory Concentration of Meropenem
Description: as §1

A. baumannii (Ab) AR# 37 = assay: as above; settings: Acinetobacter baumannii, no compound (None), read-out: Minimum Inhibitory Concentration of Meropenem
Description: as §1

A. baumannii (Ab) AR# 45 = assay: as above; settings: Acinetobacter baumannii, no compound (None), read-out: Minimum Inhibitory Concentration of Meropenem
Description: as §1

A. baumannii (Ab) AR# 33 = assay: as above; settings: Acinetobacter baumannii, no compound (None), read-out: Minimum Inhibitory Concentration of Meropenem
Description: as §1

A. baumannii (Ab) AR# 83 = assay: as above; settings: Acinetobacter baumannii, no compound (None), read-out: Minimum Inhibitory Concentration of Meropenem
Description: as §1

A. baumannii (Ab) AR# 35 = assay: as above; settings: Acinetobacter baumannii, no compound (None), read-out: Minimum Inhibitory Concentration of Meropenem
Description: as §1

[2] = tested on: K. pneumoniae (Kp) AR# 41; assay: as above; settings: Klebsiella pneumoniae, no compound (None), read-out: Minimum Inhibitory Concentration of Meropenem
Description: as §1

A. baumannii (Ab) AR# 70 = assay: as above; settings: Acinetobacter baumannii, no compound (None), read-out: Minimum Inhibitory Concentration of Meropenem
Description: as §1

[3] = tested on: K. pneumoniae (Kp) AR# 68; assay: as above; settings: Klebsiella pneumoniae, no compound (None), read-out: Minimum Inhibitory Concentration of Meropenem
Description: as §1

[4] = tested on: K. pneumoniae (Kp) AR# 98; assay: as above; settings: Klebsiella pneumoniae, no compound (None), read-out: Minimum Inhibitory Concentration of Meropenem
Description: as §1

A. baumannii AB5075 = assay: MIC of carbapenems in presence and absence of 2-aminoimidazole compounds; settings: Acinetobacter baumannii, no 2-AI compound (None), read-out: MIC of meropenem
Source text: (§2) The minimal inhibitory concentration (MIC) values of imipenem (I); meropenem (M) and doripenem (D) in the presence and absence of 2-aminoimidazole compounds are provided in Table 1. The concentration of each compound used in μM in the MIC assay is shown in parentheses.

[5] = tested on: K. pneumoniae ATCC BAA-1705; assay: as above; settings: Klebsiella pneumoniae, no 2-AI compound (None), read-out: MIC of meropenem
Source text: as §2

[6] = tested on: K. pneumoniae ATCC BAA-2146; assay: as above; settings: Klebsiella pneumoniae, no 2-AI compound (None), read-out: MIC of meropenem
Source text: as §2

[7] = tested on: A. baumannii ATCC BAA-1605; assay: as above; settings: Acinetobacter baumannii, no 2-AI compound (None), read-out: MIC of meropenem
Source text: as §2

- MIC (A. baumannii (Ab) AR# 88): 512 µg/mL
- MIC [1]: 1020 µg/mL
- MIC (A. baumannii (Ab) AR# 36): 128 µg/mL
- MIC (E. coli AR# 55): 256 µg/mL
- MIC (A. baumannii (Ab) AR# 63): 128 µg/mL
- MIC (A. baumannii (Ab) AR# 52): 8 µg/mL
- MIC (E. coli AR# 48): 256 µg/mL
- MIC (A. baumannii (Ab) AR# 56): 32 µg/mL
- MIC (A. baumannii (Ab) AR# 37): 256 µg/mL
- MIC (A. baumannii (Ab) AR# 45): 16 µg/mL
- MIC (A. baumannii (Ab) AR# 33): 128 µg/mL
- MIC (A. baumannii (Ab) AR# 83): 256 µg/mL
- MIC (A. baumannii (Ab) AR# 35): 128 µg/mL
- MIC [2]: 64 µg/mL
- MIC (A. baumannii (Ab) AR# 70): 8 µg/mL
- MIC [3]: 512 µg/mL
- MIC [4]: 128 µg/mL
- MIC (A. baumannii AB5075): 32 µg/mL
- MIC [5]: 64 µg/mL
- MIC [6]: 256 µg/mL
- MIC [7]: 32 µg/mL
SMILES: C[C@@H](O)[C@H]1C(=O)N2C(C(=O)O)=C(S[C@@H]3CN[C@H](C(=O)N(C)C)C3)[C@H](C)[C@H]12 [M, meropenem, reference compound]
